Reference: patent publication US20170129958A1, “COMBINATION THERAPY” (ImClone LLC, priority 2014, published 2017)
Where two headings read alike, the source gives them in different places.

Assays:
[1] = system: patients with advanced STS; settings: interim analysis; for Disease Control Rate (CR + PR + SD) (%) (90% CI) / ORR (CR + PR) (%) (90% CI): RECIST 1.1
Protocol: The Study is an open-label, multicenter, Phase 2 trial in which patients with advanced STS not amenable to treatment with surgery or radiotherapy are treated with olaratumab in combination with doxorubicin or doxorubicin alone.
Enrolled patients who meet all eligibility criteria are randomized 1:1 to one of two treatment arms, Arm A or Arm B. Arm A patients receive olaratumab in combination with doxorubicin (hereinafter the “Combination Arm”) and Arm B patients receive doxorubicin alone (hereinafter the “Doxorubicin Arm”). Randomization of this Study is performed according to a dynamic randomization algorithm using 4 pre-defined risk factors: PDGFRα expression (positive vs. negative), number of previous lines of treatment (0 vs. 1+lines), histological tumor type (i.e., leiomyosarcoma vs. synovial sarcoma vs. other tumor type), and ECOG performance status (0-1 vs. 2). This dynamic randomization procedure is used to minimize imbalance between treatment groups. To determine tumor type and PDGFRα expression in patients, a tumor sample from either a biopsy or previously archived tumor tissue sample is sufficient. Biopsy is required to be performed within 21 days prior to randomization; archived tissue sample must also be available within this timeframe.
Combination Arm: 64 patients randomized in the Combination Arm receive 15 mg/kg of olaratumab on Days 1 and 8 of each 21-day treatment cycle, in combination with 75 mg/m^2 doxorubicin administered on Day 1 of each cycle. (Note: if premedication is required prior to the first doxorubicin infusion, this is to be done after the completion of olaratumab infusion, not before the olaratumab infusion. This premedication may be administered within the hour that follows completion of the olaratumab infusion.) The actual (not planned) administration of each doxorubicin infusion defines Day 1 of each 21-day treatment cycle. The combination treatment just described is to continue for up to 8 cycles at the investigator's discretion. During Cycles 5 through 8, patients being treated with doxorubicin may also be administered 750 mg/m^2 dexrazoxane on Day 1 of each cycle, (at the investigator's discretion) prior to doxorubicin on Day 1 of each 21-day cycle. If the dose of doxorubicin is reduced at any point in the Study, the dose of dexrazoxane is to be reduced accordingly, maintaining a dosage ratio of 10:1. For example, if doxorubicin is reduced to 60 mg/m^2, then dexrazoxane is to be reduced to 600 mg/m^2. Doxorubicin may be administered within the hour that follows completion of the olaratumab infusion. In the absence of PD or other withdrawal criteria, patients in the Combination Arm who have completed eight cycles of therapy are to receive subsequent olaratumab monotherapy, administered on Days 1 and 8 of each 21-day cycle. Furthermore, if doxorubicin is discontinued (e.g., for reasons of toxicity) prior to end of cycle 8 and in the absence of withdrawal criteria, patients may continue to receive olaratumab monotherapy. For patients who discontinue olaratumab during the first 8 cycles of treatment, doxorubicin may be continued (for up to 8 cycles), provided no withdrawal criteria are met.
Doxorubicin Arm: 65 patients randomized in the Doxorubicin Arm receive 75 mg/m^2 doxorubicin on Day 1 of each cycle, for up to 8 cycles at the investigator's discretion. The actual (not planned) administration of each doxorubicin infusion defines Day 1 of each 21-day treatment cycle. During cycles 5 through 8, 750 mg/m^2 dexrazoxane may also be administered on Day 1 of each cycle, (at the investigator's discretion) prior to doxorubicin on Day 1 of each 21-day cycle. If the dose of doxorubicin is reduced at any point in the Study, the dose of dexrazoxane is to be reduced accordingly, maintaining a dosage ratio of 10:1. For example, if doxorubicin is reduced to 60 mg/m^2, then dexrazoxane is to be reduced to 600 mg/m^2.

[2] = system: SKLMS-1 leiomyosarcoma xenograft; assay: SKLMS-1 leiomyosarcoma xenograft model; format: in vivo, nu/nu athymic mice; settings: day 21; olaratumab 60 mg/kg (loading dose 214 mg/kg), doxorubicin 3 mg/kg, i.p. twice a week; versus saline control
Protocol: 6 to 7-week-old female nu/nu athymic mice are injected with 5×10^6 SKLMS-1 (ATCC #HBT-88) cells/mouse in 50% Matrigel (BD Biosciences #356235). When tumors are approximately 300 mm^3 in volume, the mice are randomized by tumor volume into 4 treatment groups (n=12): Group 1 control mice are dosed with USP Saline (Aldwin Scientific #2F7124) at 10 μL/gram, Group 2 mice are dosed with olaratumab at 60 mg/kg (loading dose 214 mg/kg), Group 3 mice are dosed with doxorubicin (Sigma #D-1515) at 3 mg/kg and Group 4 mice are dosed with a combination of olaratumab and doxorubicin at the monotherapy concentrations of 60 mg/kg olaratumab and 3 mg/kg doxorubicin. The combinations are dosed so that olaratumab is administered 1-2 hours prior to doxorubicin on the days of treatment. All treatments are administered via intra-peritoneal injection twice a week on Tuesday and Friday.
(§1) Olaratumab and doxorubicin are prepared in USP Saline. Tumor volume is measured by three dimensional caliper measurements twice a week during the course of the study and calculated as volume in mm^3=L (longer of measured dimension)×W^2 (shorter dimension)×(pi/6). […] Relative changes in tumor volume (% T/C) are calculated using the tumor volume measurements taken at day 21 and the baseline tumor volume is the volume recorded on or just prior to first day of dosing.

[3] = system: KHOS/NP osteosarcoma xenograft; assay: KHOS/NP osteosarcoma xenograft model; format: in vivo, nu/nu athymic mice; settings: day 32; olaratumab 60 mg/kg (loading dose 214 mg/kg), doxorubicin 3 mg/kg, i.p. twice a week; versus saline control
Protocol: 6 to 7-week-old female nu/nu athymic mice are injected with 1×10^6 KHOS/NP (ATCC #CRL-1544) cells/mouse in 50% Matrigel (BD Biosciences #356235). When tumors are approximately 450 mm^3 in volume, the mice are randomized by tumor volume into 4 treatment groups (n=12): Group 1 control mice are dosed with USP Saline (Aldwin Scientific #2F7124) at 10 μL/gram, Group 2 mice are dosed with olaratumab at 60 mg/kg (loading dose 214 mg/kg), Group 3 mice are dosed with doxorubicin (Sigma #D-1515) at 3 mg/kg and Group 4 mice are dosed with a combination of olaratumab and doxorubicin at the monotherapy concentrations of 60 mg/kg olaratumab and 3 mg/kg doxorubicin. The combinations are dosed so that doxorubicin is administered 3 hours prior to olaratumab on the days of treatment. All treatments are administered via intra-peritoneal injection twice a week on Monday and Thursday.
as §1, with “32, whereas” for “21 and”

[4] = system: A204 rhabdoid tumor xenograft; assay: A204 rhabdoid xenograft model; format: in vivo, nu/nu athymic mice; settings: day 30; olaratumab 40 mg/kg i.p. 3x a week; versus HuIgG control
Protocol: 7 to 8-week-old female nu/nu athymic mice are injected with 5×10^6 A204 (ATCC #CRL-7900) cells/mouse in 100% Matrigel (BD Biosciences #356235). When tumors are approximately 340 mm^3 in volume, the mice are randomized by tumor volume into 2 treatment groups (n=12): Group 1 control mice are dosed with HuIgG (Equitech-Bio #SLH66-0001) at 40 mg/kg and Group 2 mice are dosed with olaratumab at 40 mg/kg. All treatments are administered via intra-peritoneal injection 3×a week on Monday, Wednesday and Friday.
Olaratumab is diluted in USP Saline (Aldwin Scientific #2F7124) at 4 mg/mL. Tumor volume is measured by three dimensional caliper measurements twice a week during the course of the study and calculated as volume in mm^3=L (longer of measured dimension)×W^2 (shorter dimension)×(pi/6). A repeated measures ANOVA is used to evaluate the differences in tumor growth and body weight between the treatment groups. Relative changes in tumor volume (%T/C) are calculated using the tumor volume measurements taken at day 30, whereas the baseline tumor volume is the volume recorded on or just prior to first day of dosing.

[5] = patients sub-typed with leiomyosarcoma

Molecule	OS Median Weeks (90% CI) ([1]; all STS subtypes, Kaplan-Meier) [weeks]	PFS Median Weeks (90% CI) ([1]; all STS subtypes, Kaplan-Meier, olaratumab 15 mg/kg Days 1 and 8, doxorubicin 75 mg/m^2 Day 1, 21-day cycle) [weeks]	12-month OS rate ([1]; 12 months) [%]	18-month OS rate ([1]; 18 months) [%]	Disease Control Rate (CR + PR + SD) (%) (90% CI) [1]	ORR (CR + PR) (%) (90% CI) [1]	Disease Control Rate (CR + PR + SD) (%) (90% CI) ([1]; listed as Doxorubicin Arm)	ORR (CR + PR) (%) (90% CI) ([1]; listed as Doxorubicin Arm)	PFS Other Sarcoma Median Weeks (90% CI) ([1]; patients sub-typed as other sarcomas) [weeks]	OS Leiomyosarcoma Median Weeks (90% CI) [1, 5] [weeks]	PFS Leiomyosarcoma Median Weeks (90% CI) [1, 5] [weeks]	OS Other Sarcoma Median Weeks (90% CI) ([1]; patients sub-typed with other sarcomas) [weeks]	% T/C (relative change in tumor volume) [2] [%]	% T/C (relative change in tumor volume) [3] [%]	% T/C (relative change in tumor volume) [4] [%]
COc1cccc2c1C(=O)c1c(O)c3c(c(O)c1C2=O)C[C@@](O)(C(=O)CO)C[C@@H]3O[C@H]1C[C@H](N)[C@H](O)[C@H](C)O1 [doxorubicin]	58.7	17.9	55.1	40.0	53.8	10.8	53.8	10.8	19.0	45.3	15.7	78.1	64	72	–
olaratumab: recombinant human monoclonal IgG1 anti-PDGFRα antibody; two heavy chains SEQ ID NO: 9, two light chains SEQ ID NO: 10; CAS 1024603-93-7	–	–	–	–	–	–	–	–	–	–	–	–	64	79	37
